Tested on: Kasumi-1 acute myeloid leukemia cells
Test: Growth Inhibition Assay (Alamar blue), Kasumi-1
Format: cell-based, human
Details: Homo sapiens, Kasumi 1, 72 h, Kasumi-1 cells
Description: The IC50 values listed for some of these compounds illustrate the antiproliferative effects of the subject compounds and were obtained using the Growth Inhibition assays described herein.
Growth Inhibition Assay. Antiproliferative effects of inhibitors were evaluated using the dye Alamar blue. This reagent offers a rapid objective measure of cell viability in cell culture, and it uses the indicator dye resazurin to measure the metabolic capacity of cells, an indicator of cell viability. Briefly, cells were plated on Costar 96-well plates. For attached cells (such as SKBr3, MDA-MB-468, LNCaP, MRCS), 8,000 cells/well were used. For suspension cells (such as MOLM-13, Kasumi-1, OCI-Ly7, PBL), 20,000 cells/well were plated. Cells were allowed to incubate for 24 h at 37° C. before drug treatment. Drugs were added in triplicates at the indicated concentrations, and the plate was incubated for 72 h. Alamar Blue (440 μM) was added, and the plate read 6 h later using the Analyst GT (Fluorescence intensity mode, excitation 530 nm, emission 580 nm, with 560=dichroic mirror). Results were analyzed using the Softmax Pro software. The percentage cell growth inhibition was calculated by comparing fluorescence readings obtained from treated versus control cells, accounting for initial cell population (time zero).

Row | Structure (SMILES) | IC50 [µM]
1 | COc1nc(N2CCN(C)CC2)nc(OC)c1Sc1nc(NC(C)=O)cc(NC(C)=O)n1 [YK1, N,N′-(2-(4,6-dimethoxy-2-(4-methylpiperazin-1-yl)pyrimidin-5-ylthio)pyrimidine-4,6-diyl)diacetamide] | 15
2 | COc1nc(N2CCN(C)CC2)nc(OC)c1Sc1nc(N)cc(N)n1 [YK2, 2-(4,6-dimethoxy-2-(4-methylpiperazin-1-yl)pyrimidin-5-ylthio)pyrimidine-4,6-diamine] | 57.2
3 | COc1nc(N2CCCCC2)nc(OC)c1Sc1nc(NC(C)=O)cc(NC(C)=O)n1 [YK9, N,N′-(2-(4,6-dimethoxy-2-(piperidin-1-yl)pyrimidin-5-ylthio)pyrimidine-4,6-diyl)diacetamide] | > 100
4 | COc1nc(N2CCOCC2)nc(OC)c1Sc1nc(N)cc(N)n1 [YK11, 2-(4,6-dimethoxy-2-morpholinopyrimidin-5-ylthio)pyrimidine-4,6-diamine] | > 100
5 | CCC(=O)Nc1cc(N)nc(Sc2c(OC)nc(N3CCN(CCO)CC3)nc2OC)n1 [YK14, N-(6-amino-2-(2-(4-(2-hydroxyethyl)piperazin-1-yl)-4,6-dimethoxypyrimidin-5-ylthio)pyrimidin-4-yl)propionamide] | > 100
6 | CCC(=O)Nc1cc(N)nc(Sc2c(OC)nc(N3CCOCC3)nc2OC)n1 [YK15, N-(6-amino-2-(4,6-dimethoxy-2-morpholinopyrimidin-5-ylthio)pyrimidin-4-yl)propionamide] | > 100
7 | CCC(=O)Nc1cc(N)nc(Sc2c(OC)nc(N3CCCCC3)nc2OC)n1 [YK16, N-(6-amino-2-(4,6-dimethoxy-2-(piperidin-1-yl)pyrimidin-5-ylthio)pyrimidin-4-yl)propionamide] | > 100
8 | C=CC(=O)Nc1cc(N)nc(Sc2c(OC)nc(N3CCOCC3)nc2OC)n1 [YK18, N-(6-amino-2-(4,6-dimethoxy-2-morpholinopyrimidin-5-ylthio)pyrimidin-4-yl)acrylamide] | 3
9 | C=CC(=O)Nc1cc(N)nc(Sc2c(OC)nc(N3CCCCC3)nc2OC)n1 [YK19, N-(6-amino-2-(4,6-dimethoxy-2-(piperidin-1-yl)pyrimidin-5-ylthio)pyrimidin-4-yl)acrylamide] | 2.5
10 | CCCCCCCC(=O)Nc1cc(N)nc(Sc2c(OC)nc(N3CCN(C)CC3)nc2OC)n1 [YK20, N-(6-amino-2-(4,6-dimethoxy-2-(4-methylpiperazin-1-yl)pyrimidin-5-ylthio)pyrimidin-4-yl)octanamide] | 6.3
11 | CCCCCCCC(=O)Nc1cc(N)nc(Sc2c(OC)nc(N3CCCCC3)nc2OC)n1 [YK23, N-(6-amino-2-(4,6-dimethoxy-2-(piperidin-1-yl)pyrimidin-5-ylthio)pyrimidin-4-yl)octanamide] | 13.2
12 | CCCCN1CCN(c2nc(OC)c(Sc3nc(NC(C)=O)cc(NC(C)=O)n3)c(OC)n2)CC1 [YK24, N,N′-(2-(2-(4-butylpiperazin-1-yl)-4,6-dimethoxypyrimidin-5-ylthio)pyrimidine-4,6-diyl)diacetamide] | 16.8
13 | CCOc1nc(N2CCN(C)CC2)nc(OCC)c1Sc1nc(N)cc(NC(=O)C2CC2)n1 [YK33, N-(6-amino-2-(4,6-diethoxy-2-(4-methylpiperazin-1-yl)pyrimidin-5-ylthio)pyrimidin-4-yl)cyclopropanecarboxamide] | 88.7
14 | CCOc1nc(N2CCCCC2)nc(OCC)c1Sc1nc(N)cc(NC(=O)CC)n1 [YK38, N-(6-amino-2-(4,6-diethoxy-2-(piperidin-1-yl)pyrimidin-5-ylthio)pyrimidin-4-yl)propionamide] | 50
15 | CCOc1nc(N2CCCCC2)nc(OCC)c1Sc1nc(N)cc(NC(=O)C2CC2)n1 [YK40, N-(6-amino-2-(4,6-diethoxy-2-(piperidin-1-yl)pyrimidin-5-ylthio)pyrimidin-4-yl)cyclopropanecarboxamide] | 38.3
16 | CCOc1nc(N2CCCCC2)nc(OCC)c1Sc1nc(NC(=O)C2CC2)cc(NC(=O)C2CC2)n1 [YK41, N,N′-(2-(4,6-diethoxy-2-(piperidin-1-yl)pyrimidin-5-ylthio)pyrimidine-4,6-diyl)dicyclopropanecarboxamide] | > 100
17 | C=CC(=O)Nc1cc(N)nc(Sc2c(OCC)nc(N3CCOCC3)nc2OCC)n1 [YK44, N-(6-amino-2-(4,6-diethoxy-2-morpholinopyrimidin-5-ylthio)pyrimidin-4-yl)acrylamide] | 1.2
18 | C=CC(=O)Nc1cc(N)nc(Sc2c(OC)nc(N)nc2OC)n1 [YK50, N-(6-amino-2-(2-amino-4,6-dimethoxypyrimidin-5-ylthio)pyrimidin-4-yl)acrylamide] | 1.5
19 | COc1nc(N2CCN(C)CC2)nc(OC)c1Sc1nc(N)cc(NC(=O)CCN(C)C)n1 [YK51, N-(6-amino-2-(4,6-dimethoxy-2-(4-methylpiperazin-1-yl)pyrimidin-5-ylthio)pyrimidin-4-yl)-3-(dimethylamino)propanamide] | 8
20 | COc1nc(NCCCCCCO)nc(OC)c1Sc1nc(N)cc(N)n1 [YK52, 6-(5-(4,6-diaminopyrimidin-2-ylthio)-4,6-dimethoxypyrimidin-2-ylamino)hexan-1-ol] | 779
21 | C=CC(=O)Nc1cc(N)nc(Sc2c(OC)nc(N3CCN(CCOCCOCCOCCOC(=O)CCCCC4SCC5NC(=O)NC54)CC3)nc2OC)n1 (stereo not drawn) [YK55, 2-(2-(2-(2-(4-(5-(4-acrylamido-6-aminopyrimidin-2-ylthio)-4,6-dimethoxypyrimidin-2-yl)piperazin-1-yl)ethoxy)ethoxy)ethoxy)ethyl 5-(2-oxohexahydro-1H-thieno[3,4-d]imidazol-4-yl)pentanoate] | 13.1
22 | COc1nc(N)nc(OC)c1Sc1nccc(NC(C)=O)n1 [YK61, N-(2-(2-amino-4,6-dimethoxypyrimidin-5-ylthio)pyrimidin-4-yl)acetamide] | 94.4

Continued, values first:

Row | IC50 [µM] | Structure (SMILES)
23 | 23 | COc1nc(N)nc(OC)c1Sc1nc(N)cc(NC(=O)CCN2CCN(C)CC2)n1 [YK6, N-(6-amino-2-(2-amino-4,6-dimethoxypyrimidin-5-ylthio)pyrimidin-4-yl)-3-(4-methylpiperazin-1-yl)propanamide]
24 | > 100 | COc1nc(N2CCOCC2)nc(OC)c1Sc1nc(NC(C)=O)cc(NC(C)=O)n1 [YK8, N,N′-(2-(4,6-dimethoxy-2-morpholinopyrimidin-5-ylthio)pyrimidine-4,6-diyl)diacetamide]
25 | > 100 | COc1nc(N2CCCCC2)nc(OC)c1Sc1nc(N)cc(N)n1 [YK12, 2-(4,6-dimethoxy-2-(piperidin-1-yl)pyrimidin-5-ylthio)pyrimidine-4,6-diamine]
26 | > 100 | CCC(=O)Nc1cc(N)nc(Sc2c(OC)nc(N3CCN(C)CC3)nc2OC)n1 [YK13, N-(6-amino-2-(4,6-dimethoxy-2-(4-methylpiperazin-1-yl)pyrimidin-5-ylthio)pyrimidin-4-yl)propionamide]
27 | 7.2 | CCCCCCCC(=O)Nc1cc(N)nc(Sc2c(OC)nc(N3CCN(CCO)CC3)nc2OC)n1 [YK21, N-(6-amino-2-(2-(4-(2-hydroxyethyl)piperazin-1-yl)-4,6-dimethoxypyrimidin-5-ylthio)pyrimidin-4-yl)octanamide]
28 | 12.3 | CCCCCCCC(=O)Nc1cc(N)nc(Sc2c(OC)nc(N3CCOCC3)nc2OC)n1 [YK22, N-(6-amino-2-(4,6-dimethoxy-2-morpholinopyrimidin-5-ylthio)pyrimidin-4-yl)octanamide]
29 | > 100 | CCCCN1CCN(c2nc(OC)c(Sc3nc(N)cc(N)n3)c(OC)n2)CC1 [YK25, 2-(2-(4-butylpiperazin-1-yl)-4,6-dimethoxypyrimidin-5-ylthio)pyrimidine-4,6-diamine]
30 | 76.7 | CCOc1nc(N2CCN(C)CC2)nc(OCC)c1Sc1nc(NC(C)=O)cc(NC(C)=O)n1 [YK29, N,N′-(2-(4,6-diethoxy-2-(4-methylpiperazin-1-yl)pyrimidin-5-ylthio)pyrimidine-4,6-diyl)diacetamide]
31 | 0.48 | C=CC(=O)Nc1cc(N)nc(Sc2c(OCC)nc(N3CCN(C)CC3)nc2OCC)n1 [YK30, N-(6-amino-2-(4,6-diethoxy-2-(4-methylpiperazin-1-yl)pyrimidin-5-ylthio)pyrimidin-4-yl)acrylamide]
32 | 55 | C/C=C/C(=O)Nc1cc(N)nc(Sc2c(OCC)nc(N3CCN(C)CC3)nc2OCC)n1 [YK34, (E)-N-(6-amino-2-(4,6-diethoxy-2-(4-methylpiperazin-1-yl)pyrimidin-5-ylthio)pyrimidin-4-yl)but-2-enamide]
33 | 2.5 | C=CC(=O)Nc1cc(N)nc(Sc2c(OCC)nc(N3CCCCC3)nc2OCC)n1 [YK37, N-(6-amino-2-(4,6-diethoxy-2-(piperidin-1-yl)pyrimidin-5-ylthio)pyrimidin-4-yl)acrylamide]
34 | > 100 | CCOc1nc(N2CCOCC2)nc(OCC)c1Sc1nc(N)cc(NC(=O)c2ccco2)n1 [YK49, N-(6-amino-2-(4,6-diethoxy-2-morpholinopyrimidin-5-ylthio)pyrimidin-4-yl)furan-2-carboxamide]
35 | 16 | COc1nc(N2CCN(C)CC2)nc(OC)c1Sc1nc(N)cc(NC(C)=O)n1 [YK53, N-(6-amino-2-(4,6-dimethoxy-2-(4-methylpiperazin-1-yl)pyrimidin-5-ylthio)pyrimidin-4-yl)acetamide]
36 | 4.8 | C=CC(=O)Nc1cc(N)nc(Sc2c(OC)nc(N3CCN(CCOCCOCCOCCO)CC3)nc2OC)n1 [YK54, N-(6-amino-2-(2-(4-(2-(2-(2-(2-hydroxyethoxy)ethoxy)ethoxy)ethyl)piperazin-1-yl)-4,6-dimethoxypyrimidin-5-ylthio)pyrimidin-4-yl)acrylamide]

Reference: patent publication US9567318B2, “Substituted pyrimidine compounds and uses thereof” (Memorial Sloan-Kettering Cancer Center, priority 2009, dated 2017)
